ChEMBL document CHEMBL4316596, “Antimicrobial Peptides with High Proteolytic Resistance for Combating Gram-Negative Bacteria” (J Med Chem, 2019)

Tested on: Acinetobacter baumannii
Experiment: Antimicrobial activity against Acinetobacter baumannii after 24 hrs by NCCLS-protocol based assay
Assay type: functional
Conditions: not given

Row | Substance | MIC95
1 | H-VRPVVRPVVRPVVRPVVRPVVRPV-NH2 | 4 µM
2 | H-VRPVVRPVVRPVVRPVVRPVVRPVVRPV-NH2 | 4 µM

Tested on: Acinetobacter baumannii
Experiment: Bactericidal activity against Acinetobacter baumannii incubated for 4 hrs followed by culture spread on agar plates and cultured overnight
Assay type: functional
Conditions: read-out: MBC>99.9

Row | Substance | MBC
3 | H-VRPVVRPVVRPVVRPVVRPVVRPV-NH2 | 4 µM
4 | H-VRPVVRPVVRPVVRPVVRPVVRPVVRPV-NH2 | 4 µM

Tested on: Pseudomonas aeruginosa
Experiment: Bactericidal activity against Pseudomonas aeruginosa 25349 clinical isolates incubated for 4 hrs followed by culture spread on agar plates and cultured overnight
Assay type: functional
Conditions: Pseudomonas aeruginosa, 25349, 4 h; read-out: MBC>99.9

Row | Substance | MBC
5 | H-VRPVVRPVVRPVVRPVVRPVVRPV-NH2 | > 64 µM
6 | H-VRPVVRPVVRPVVRPVVRPVVRPVVRPV-NH2 | > 64 µM

Tested on: Escherichia coli
Experiment: Bactericidal activity against Escherichia coli ATCC 25922 incubated for 4 hrs followed by culture spread on agar plates and cultured overnight
Assay type: functional
Conditions: ATCC 25922, 4 h, read-out: MBC>99.9

Row | Substance | MBC
7 | H-VRPVVRPVVRPVVRPVVRPVVRPV-NH2 | > 64 µM
8 | H-VRPVVRPVVRPVVRPVVRPVVRPVVRPV-NH2 | 16 µM

Tested on: Salmonella typhimurium
Experiment: Bactericidal activity against Salmonella typhimurium ATCC 14028 incubated for 4 hrs followed by culture spread on agar plates and cultured overnight
Assay type: functional, Salmonella enterica subsp. enterica serovar Typhimurium
Conditions: Salmonella enterica, ATCC 14028, 4 h; read-out: MBC>99.9

Row | Substance | MBC
9 | H-VRPVVRPVVRPVVRPVVRPVVRPV-NH2 | 32 µM
10 | H-VRPVVRPVVRPVVRPVVRPVVRPVVRPV-NH2 | 16 µM

Tested on: Escherichia coli
Experiment: Bactericidal activity against Escherichia coli K99 incubated for 4 hrs followed by culture spread on agar plates and cultured overnight
Assay type: functional
Conditions: K99, 4 h, read-out: MBC>99.9

Row | Substance | MBC
11 | H-VRPVVRPVVRPVVRPVVRPVVRPV-NH2 | 16 µM
12 | H-VRPVVRPVVRPVVRPVVRPVVRPVVRPV-NH2 | 32 µM

Tested on: Pseudomonas aeruginosa
Experiment: Bactericidal activity against Pseudomonas aeruginosa CICC 21625 clinical isolates incubated for 4 hrs followed by culture spread on agar plates and cultured overnight
Assay type: functional
Conditions: CICC 21625, 4 h, read-out: MBC>99.9

Row | Substance | MBC
13 | H-VRPVVRPVVRPVVRPVVRPVVRPV-NH2 | > 64 µM
14 | H-VRPVVRPVVRPVVRPVVRPVVRPVVRPV-NH2 | > 64 µM

Tested on: Escherichia coli
Experiment: Bactericidal activity against Escherichia coli 078 incubated for 4 hrs followed by culture spread on agar plates and cultured overnight
Assay type: functional
Conditions: Escherichia coli, 078, 4 h; read-out: MBC>99.9

Row | Substance | MBC
15 | H-VRPVVRPVVRPVVRPVVRPVVRPV-NH2 | > 64 µM
16 | H-VRPVVRPVVRPVVRPVVRPVVRPVVRPV-NH2 | 16 µM

Tested on: Salmonella typhimurium
Experiment: Antimicrobial activity against Salmonella typhimurium ATCC 14028 after 24 hrs by NCCLS-protocol based assay
Assay type: functional, Salmonella enterica subsp. enterica serovar Typhimurium
Conditions: Salmonella enterica, ATCC 14028, 24 h

Row | Substance | MIC95
17 | H-VRPVVRPVVRPVVRPVVRPVVRPV-NH2 | 16 µM
18 | H-VRPVVRPVVRPVVRPVVRPVVRPVVRPV-NH2 | 8 µM

Tested on: Pseudomonas aeruginosa
Experiment: Antimicrobial activity against Pseudomonas aeruginosa 25349 clinical isolates after 24 hrs by NCCLS-protocol based assay
Assay type: functional
Conditions: Pseudomonas aeruginosa, 25349, 24 h

Row | Substance | MIC95
19 | H-VRPVVRPVVRPVVRPVVRPVVRPV-NH2 | > 64 µM
20 | H-VRPVVRPVVRPVVRPVVRPVVRPVVRPV-NH2 | > 64 µM

Tested on: Escherichia coli
Experiment: Bactericidal activity against Escherichia coli UB1005 incubated for 4 hrs followed by culture spread on agar plates and cultured overnight
Assay type: functional
Conditions: UB1005, 4 h, read-out: MBC>99.9

Row | Substance | MBC
21 | H-VRPVVRPVVRPVVRPVVRPVVRPV-NH2 | 32 µM
22 | H-VRPVVRPVVRPVVRPVVRPVVRPVVRPV-NH2 | 8 µM

Tested on: not listed separately
Experiment: Antimicrobial activity against Salmonella pullorum C7913 after 24 hrs by NCCLS-protocol based assay
Assay type: functional, Salmonella enterica subsp. enterica serovar Pullorum
Conditions: Salmonella enterica, C7913, 24 h

Row | Substance | MIC95
23 | H-VRPVVRPVVRPVVRPVVRPVVRPV-NH2 | 8 µM
24 | H-VRPVVRPVVRPVVRPVVRPVVRPVVRPV-NH2 | 4 µM

Tested on: Pseudomonas aeruginosa
Experiment: Antimicrobial activity against Pseudomonas aeruginosa ATCC 27853 after 24 hrs by NCCLS-protocol based assay
Assay type: functional
Conditions: ATCC 27853, 24 h

Row | Substance | MIC95
25 | H-VRPVVRPVVRPVVRPVVRPVVRPV-NH2 | > 64 µM
26 | H-VRPVVRPVVRPVVRPVVRPVVRPVVRPV-NH2 | > 64 µM

Tested on: Salmonella typhimurium
Experiment: Bactericidal activity against Salmonella typhimurium C7731 incubated for 4 hrs followed by culture spread on agar plates and cultured overnight
Assay type: functional, Salmonella enterica subsp. enterica serovar Typhimurium
Conditions: Salmonella enterica, C7731, 4 h; read-out: MBC>99.9

Row | Substance | MBC
27 | H-VRPVVRPVVRPVVRPVVRPVVRPV-NH2 | 32 µM
28 | H-VRPVVRPVVRPVVRPVVRPVVRPVVRPV-NH2 | 32 µM

Tested on: Pseudomonas aeruginosa
Experiment: Bactericidal activity against Pseudomonas aeruginosa PAO1 incubated for 4 hrs followed by culture spread on agar plates and cultured overnight
Assay type: functional
Conditions: PAO1, 4 h, read-out: MBC>99.9

Row | Substance | MBC
29 | H-VRPVVRPVVRPVVRPVVRPVVRPV-NH2 | > 64 µM
30 | H-VRPVVRPVVRPVVRPVVRPVVRPVVRPV-NH2 | > 64 µM

Tested on: Pseudomonas aeruginosa
Experiment: Antimicrobial activity against Pseudomonas aeruginosa PAO1 after 24 hrs by NCCLS-protocol based assay
Assay type: functional
Conditions: PAO1, 24 h

Row | Substance | MIC95
31 | H-VRPVVRPVVRPVVRPVVRPVVRPV-NH2 | > 64 µM
32 | H-VRPVVRPVVRPVVRPVVRPVVRPVVRPV-NH2 | > 64 µM

Tested on: Escherichia coli
Experiment: Antimicrobial activity against Escherichia coli K99 after 24 hrs by NCCLS-protocol based assay
Assay type: functional
Conditions: K99, 24 h

Row | Substance | MIC95
33 | H-VRPVVRPVVRPVVRPVVRPVVRPV-NH2 | 16 µM
34 | H-VRPVVRPVVRPVVRPVVRPVVRPVVRPV-NH2 | 16 µM

Tested on: Escherichia coli
Experiment: Antimicrobial activity against Escherichia coli K88 after 24 hrs by NCCLS-protocol based assay
Assay type: functional
Conditions: K88, 24 h

Row | Substance | MIC95
35 | H-VRPVVRPVVRPVVRPVVRPVVRPV-NH2 | 8 µM
36 | H-VRPVVRPVVRPVVRPVVRPVVRPVVRPV-NH2 | 8 µM

Tested on: Escherichia coli
Experiment: Bactericidal activity against Escherichia coli K88 incubated for 4 hrs followed by culture spread on agar plates and cultured overnight
Assay type: functional
Conditions: K88, 4 h, read-out: MBC>99.9

Row | Substance | MBC
37 | H-VRPVVRPVVRPVVRPVVRPVVRPV-NH2 | 8 µM
38 | H-VRPVVRPVVRPVVRPVVRPVVRPVVRPV-NH2 | 32 µM

Tested on: Pseudomonas aeruginosa
Experiment: Antimicrobial activity against Pseudomonas aeruginosa 26305 clinical isolates after 24 hrs by NCCLS-protocol based assay
Assay type: functional
Conditions: Pseudomonas aeruginosa, 26305, 24 h

Row | Substance | MIC95
39 | H-VRPVVRPVVRPVVRPVVRPVVRPV-NH2 | > 64 µM
40 | H-VRPVVRPVVRPVVRPVVRPVVRPVVRPV-NH2 | > 64 µM

Tested on: Klebsiella pneumoniae
Experiment: Bactericidal activity against Klebsiella pneumoniae incubated for 4 hrs followed by culture spread on agar plates and cultured overnight
Assay type: functional
Conditions: read-out: MBC>99.9

Row | Substance | MBC
41 | H-VRPVVRPVVRPVVRPVVRPVVRPV-NH2 | > 64 µM
42 | H-VRPVVRPVVRPVVRPVVRPVVRPVVRPV-NH2 | 64 µM

Tested on: Pseudomonas aeruginosa
Experiment: Bactericidal activity against Pseudomonas aeruginosa CICC 21630 clinical isolates incubated for 4 hrs followed by culture spread on agar plates and cultured overnight
Assay type: functional
Conditions: CICC 21630, 4 h, read-out: MBC>99.9

Row | Substance | MBC
43 | H-VRPVVRPVVRPVVRPVVRPVVRPV-NH2 | > 64 µM
44 | H-VRPVVRPVVRPVVRPVVRPVVRPVVRPV-NH2 | > 64 µM

Tested on: not listed separately
Experiment: Bactericidal activity against Salmonella pullorum C7913 incubated for 4 hrs followed by culture spread on agar plates and cultured overnight
Assay type: functional, Salmonella enterica subsp. enterica serovar Pullorum
Conditions: Salmonella enterica, C7913, 4 h; read-out: MBC>99.9

Row | Substance | MBC
45 | H-VRPVVRPVVRPVVRPVVRPVVRPV-NH2 | 16 µM
46 | H-VRPVVRPVVRPVVRPVVRPVVRPVVRPV-NH2 | 8 µM

Tested on: Salmonella typhimurium
Experiment: Antimicrobial activity against Salmonella typhimurium C7731 after 24 hrs by NCCLS-protocol based assay
Assay type: functional, Salmonella enterica subsp. enterica serovar Typhimurium
Conditions: Salmonella enterica, C7731, 24 h

Row | Substance | MIC95
47 | H-VRPVVRPVVRPVVRPVVRPVVRPV-NH2 | 32 µM
48 | H-VRPVVRPVVRPVVRPVVRPVVRPVVRPV-NH2 | 16 µM

Tested on: Pseudomonas aeruginosa
Experiment: Antimicrobial activity against Pseudomonas aeruginosa CICC 21630 clinical isolates after 24 hrs by NCCLS-protocol based assay
Assay type: functional
Conditions: CICC 21630, 24 h

Row | Substance | MIC95
49 | H-VRPVVRPVVRPVVRPVVRPVVRPV-NH2 | > 64 µM
50 | H-VRPVVRPVVRPVVRPVVRPVVRPVVRPV-NH2 | > 64 µM

Tested on: Pseudomonas aeruginosa
Experiment: Bactericidal activity against Pseudomonas aeruginosa 26305 clinical isolates incubated for 4 hrs followed by culture spread on agar plates and cultured overnight
Assay type: functional
Conditions: Pseudomonas aeruginosa, 26305, 4 h; read-out: MBC>99.9

Row | Substance | MBC
51 | H-VRPVVRPVVRPVVRPVVRPVVRPV-NH2 | > 64 µM
52 | H-VRPVVRPVVRPVVRPVVRPVVRPVVRPV-NH2 | > 64 µM

Tested on: Escherichia coli
Experiment: Antimicrobial activity against Escherichia coli ATCC 25922 after 24 hrs by NCCLS-protocol based assay
Assay type: functional
Conditions: ATCC 25922, 24 h

Row | Substance | MIC95
53 | H-VRPVVRPVVRPVVRPVVRPVVRPV-NH2 | 64 µM
54 | H-VRPVVRPVVRPVVRPVVRPVVRPVVRPV-NH2 | 8 µM

Tested on: Escherichia coli
Experiment: Antimicrobial activity against Escherichia coli 078 after 24 hrs by NCCLS-protocol based assay
Assay type: functional
Conditions: Escherichia coli, 078, 24 h

Row | Substance | MIC95
55 | H-VRPVVRPVVRPVVRPVVRPVVRPV-NH2 | 64 µM
56 | H-VRPVVRPVVRPVVRPVVRPVVRPVVRPV-NH2 | 8 µM

Tested on: Pseudomonas aeruginosa
Experiment: Bactericidal activity against Pseudomonas aeruginosa ATCC 27853 incubated for 4 hrs followed by culture spread on agar plates and cultured overnight
Assay type: functional
Conditions: ATCC 27853, 4 h, read-out: MBC>99.9

Row | Substance | MBC
57 | H-VRPVVRPVVRPVVRPVVRPVVRPV-NH2 | > 64 µM
58 | H-VRPVVRPVVRPVVRPVVRPVVRPVVRPV-NH2 | > 64 µM

Tested on: Pseudomonas aeruginosa
Experiment: Antimicrobial activity against Pseudomonas aeruginosa CICC 21625 clinical isolates after 24 hrs by NCCLS-protocol based assay
Assay type: functional
Conditions: CICC 21625, 24 h

Row | Substance | MIC95
59 | H-VRPVVRPVVRPVVRPVVRPVVRPV-NH2 | > 64 µM
60 | H-VRPVVRPVVRPVVRPVVRPVVRPVVRPV-NH2 | > 64 µM

Tested on: Escherichia coli
Experiment: Antimicrobial activity against Escherichia coli UB1005 after 24 hrs by NCCLS-protocol based assay
Assay type: functional
Conditions: UB1005, 24 h

Row | Substance | MIC95
61 | H-VRPVVRPVVRPVVRPVVRPVVRPV-NH2 | 32 µM
62 | H-VRPVVRPVVRPVVRPVVRPVVRPVVRPV-NH2 | 8 µM

Tested on: Klebsiella pneumoniae
Experiment: Antimicrobial activity against Klebsiella pneumoniae after 24 hrs by NCCLS-protocol based assay
Assay type: functional
Conditions: not given

Row | Substance | MIC95
63 | H-VRPVVRPVVRPVVRPVVRPVVRPV-NH2 | > 64 µM
64 | H-VRPVVRPVVRPVVRPVVRPVVRPVVRPV-NH2 | 32 µM
